Values quoted from earlier work as cited in US8772510B2, “PDE10 modulators” (Hoffmann-La Roche Inc., priority 2011, dated 2014).

Target: PDE10A (Rattus norvegicus (Rat), UniProt Q9QYJ6)
Conditions: rats, sub-chronic treatment with PCP; Rodefer et al. 2005

PDE10A, sequence (Q9QYJ6 whole entry): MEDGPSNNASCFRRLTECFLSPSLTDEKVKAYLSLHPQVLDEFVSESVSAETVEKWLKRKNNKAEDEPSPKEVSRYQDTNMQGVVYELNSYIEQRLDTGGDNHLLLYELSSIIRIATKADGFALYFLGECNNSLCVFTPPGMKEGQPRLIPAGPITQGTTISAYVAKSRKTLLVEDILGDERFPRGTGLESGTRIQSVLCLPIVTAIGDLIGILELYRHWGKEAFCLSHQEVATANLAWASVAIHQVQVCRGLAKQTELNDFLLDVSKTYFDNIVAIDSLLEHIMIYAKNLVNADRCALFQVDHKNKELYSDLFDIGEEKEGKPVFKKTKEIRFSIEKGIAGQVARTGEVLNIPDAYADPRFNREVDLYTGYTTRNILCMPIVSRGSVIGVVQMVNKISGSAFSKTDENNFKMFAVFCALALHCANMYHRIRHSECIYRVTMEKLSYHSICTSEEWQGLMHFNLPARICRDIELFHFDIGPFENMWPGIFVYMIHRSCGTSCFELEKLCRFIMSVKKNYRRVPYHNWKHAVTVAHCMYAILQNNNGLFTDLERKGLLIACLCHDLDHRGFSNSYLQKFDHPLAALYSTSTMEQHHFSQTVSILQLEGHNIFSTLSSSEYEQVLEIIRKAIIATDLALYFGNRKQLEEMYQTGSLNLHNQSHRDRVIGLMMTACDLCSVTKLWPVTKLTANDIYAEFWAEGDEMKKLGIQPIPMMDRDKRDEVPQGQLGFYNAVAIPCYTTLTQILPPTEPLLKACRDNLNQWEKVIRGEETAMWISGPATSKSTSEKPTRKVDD

## COc1ccc(Cc2nccc3cc(OC)c(OC)cc23)cc1OC [papaverine, Papaverine]
  deficits in extra-dimensional shift learning: attenuate the deficits in the extra-dimensional shift learning
